# According to patent US20070191291A1, “Compound antibacterial drugs comprising n-acetyl-d-glucosamine” (priority 2003, published 2007):
# Tested on: E. coli
# Assay: Test Example 1: inducing E. coli CGC with N-acetyl-D-glucosamine and antibiotics in different ratios (K-B method, microscopy)
# Assay type: cell-based
smiles,measurement,setting,value
"CC(=O)N[C@@H]1[C@@H](O)[C@H](O)[C@@H](CO)O[C@H]1O [Compound (I), N-acetyl-D-glucosamine]",CGC formation,"Compound (I) 10 mg, aminoglycoside (kanamycin, gentamycin) 50 mg","− (if cell length was not greater than 50 μm and cell number was within the range from 0 to 4 in each visual field, it was deemed as CGC negative and was marked with “−”)"
same,CGC formation,"Compound (I) 10 mg, aminoglycoside (kanamycin, gentamycin) 100 mg","+ (If cell length was more than 50 μm and cell number was more than 5 in each visual field, it was deemed as CGC positive and was marked with “+”)"
same,CGC formation,"Compound (I) 10 mg, aminoglycoside (kanamycin, gentamycin) 150 mg","+ (If cell length was more than 50 μm and cell number was more than 5 in each visual field, it was deemed as CGC positive and was marked with “+”)"
same,CGC formation,"Compound (I) 10 mg, aminoglycoside (kanamycin, gentamycin) 200 mg","+ (If cell length was more than 50 μm and cell number was more than 5 in each visual field, it was deemed as CGC positive and was marked with “+”)"
same,CGC formation,"Compound (I) 10 mg, aminoglycoside (kanamycin, gentamycin) 300 mg","+ (If cell length was more than 50 μm and cell number was more than 5 in each visual field, it was deemed as CGC positive and was marked with “+”)"
same,CGC formation,"Compound (I) 10 mg, aminoglycoside (kanamycin, gentamycin) 400 mg","+ (If cell length was more than 50 μm and cell number was more than 5 in each visual field, it was deemed as CGC positive and was marked with “+”)"
same,CGC formation,"Compound (I) 10 mg, aminoglycoside (kanamycin, gentamycin) 500 mg","+ (If cell length was more than 50 μm and cell number was more than 5 in each visual field, it was deemed as CGC positive and was marked with “+”)"
same,CGC formation,"Compound (I) 10 mg, macrolide (spiramycin) 300 mg","− (if cell length was not greater than 50 μm and cell number was within the range from 0 to 4 in each visual field, it was deemed as CGC negative and was marked with “−”)"
same,CGC formation,"Compound (I) 10 mg, macrolide (spiramycin) 500 mg","+ (If cell length was more than 50 μm and cell number was more than 5 in each visual field, it was deemed as CGC positive and was marked with “+”)"
same,CGC formation,"Compound (I) 10 mg, macrolide (spiramycin) 700 mg","+ (If cell length was more than 50 μm and cell number was more than 5 in each visual field, it was deemed as CGC positive and was marked with “+”)"
same,CGC formation,"Compound (I) 10 mg, macrolide (spiramycin) 900 mg","+ (If cell length was more than 50 μm and cell number was more than 5 in each visual field, it was deemed as CGC positive and was marked with “+”)"
same,CGC formation,"Compound (I) 10 mg, macrolide (spiramycin) 1100 mg","+ (If cell length was more than 50 μm and cell number was more than 5 in each visual field, it was deemed as CGC positive and was marked with “+”)"
same,CGC formation,"Compound (I) 10 mg, macrolide (spiramycin) 1300 mg","+ (If cell length was more than 50 μm and cell number was more than 5 in each visual field, it was deemed as CGC positive and was marked with “+”)"
same,CGC formation,"Compound (I) 10 mg, macrolide (spiramycin) 1500 mg","+ (If cell length was more than 50 μm and cell number was more than 5 in each visual field, it was deemed as CGC positive and was marked with “+”)"
same,CGC formation,"Compound (I) 50 mg, aminoglycoside (kanamycin, gentamycin) 50 mg","− (if cell length was not greater than 50 μm and cell number was within the range from 0 to 4 in each visual field, it was deemed as CGC negative and was marked with “−”)"
same,CGC formation,"Compound (I) 50 mg, aminoglycoside (kanamycin, gentamycin) 100 mg","− (if cell length was not greater than 50 μm and cell number was within the range from 0 to 4 in each visual field, it was deemed as CGC negative and was marked with “−”)"
same,CGC formation,"Compound (I) 50 mg, aminoglycoside (kanamycin, gentamycin) 150 mg","+ (If cell length was more than 50 μm and cell number was more than 5 in each visual field, it was deemed as CGC positive and was marked with “+”)"
same,CGC formation,"Compound (I) 50 mg, aminoglycoside (kanamycin, gentamycin) 200 mg","+ (If cell length was more than 50 μm and cell number was more than 5 in each visual field, it was deemed as CGC positive and was marked with “+”)"
same,CGC formation,"Compound (I) 50 mg, aminoglycoside (kanamycin, gentamycin) 300 mg","+ (If cell length was more than 50 μm and cell number was more than 5 in each visual field, it was deemed as CGC positive and was marked with “+”)"
same,CGC formation,"Compound (I) 50 mg, aminoglycoside (kanamycin, gentamycin) 400 mg","+ (If cell length was more than 50 μm and cell number was more than 5 in each visual field, it was deemed as CGC positive and was marked with “+”)"
same,CGC formation,"Compound (I) 50 mg, aminoglycoside (kanamycin, gentamycin) 500 mg","+ (If cell length was more than 50 μm and cell number was more than 5 in each visual field, it was deemed as CGC positive and was marked with “+”)"
same,CGC formation,"Compound (I) 50 mg, macrolide (spiramycin) 300 mg","− (if cell length was not greater than 50 μm and cell number was within the range from 0 to 4 in each visual field, it was deemed as CGC negative and was marked with “−”)"
same,CGC formation,"Compound (I) 50 mg, macrolide (spiramycin) 500 mg","− (if cell length was not greater than 50 μm and cell number was within the range from 0 to 4 in each visual field, it was deemed as CGC negative and was marked with “−”)"
same,CGC formation,"Compound (I) 50 mg, macrolide (spiramycin) 700 mg","+ (If cell length was more than 50 μm and cell number was more than 5 in each visual field, it was deemed as CGC positive and was marked with “+”)"
same,CGC formation,"Compound (I) 50 mg, macrolide (spiramycin) 900 mg","+ (If cell length was more than 50 μm and cell number was more than 5 in each visual field, it was deemed as CGC positive and was marked with “+”)"
same,CGC formation,"Compound (I) 50 mg, macrolide (spiramycin) 1100 mg","+ (If cell length was more than 50 μm and cell number was more than 5 in each visual field, it was deemed as CGC positive and was marked with “+”)"
same,CGC formation,"Compound (I) 50 mg, macrolide (spiramycin) 1300 mg","+ (If cell length was more than 50 μm and cell number was more than 5 in each visual field, it was deemed as CGC positive and was marked with “+”)"
same,CGC formation,"Compound (I) 50 mg, macrolide (spiramycin) 1500 mg","+ (If cell length was more than 50 μm and cell number was more than 5 in each visual field, it was deemed as CGC positive and was marked with “+”)"
same,CGC formation,"Compound (I) 100 mg, aminoglycoside (kanamycin, gentamycin) 50 mg","− (if cell length was not greater than 50 μm and cell number was within the range from 0 to 4 in each visual field, it was deemed as CGC negative and was marked with “−”)"
same,CGC formation,"Compound (I) 100 mg, aminoglycoside (kanamycin, gentamycin) 100 mg","− (if cell length was not greater than 50 μm and cell number was within the range from 0 to 4 in each visual field, it was deemed as CGC negative and was marked with “−”)"
same,CGC formation,"Compound (I) 100 mg, aminoglycoside (kanamycin, gentamycin) 150 mg","− (if cell length was not greater than 50 μm and cell number was within the range from 0 to 4 in each visual field, it was deemed as CGC negative and was marked with “−”)"
same,CGC formation,"Compound (I) 100 mg, aminoglycoside (kanamycin, gentamycin) 200 mg","+ (If cell length was more than 50 μm and cell number was more than 5 in each visual field, it was deemed as CGC positive and was marked with “+”)"
same,CGC formation,"Compound (I) 100 mg, aminoglycoside (kanamycin, gentamycin) 300 mg","+ (If cell length was more than 50 μm and cell number was more than 5 in each visual field, it was deemed as CGC positive and was marked with “+”)"
same,CGC formation,"Compound (I) 100 mg, aminoglycoside (kanamycin, gentamycin) 400 mg","+ (If cell length was more than 50 μm and cell number was more than 5 in each visual field, it was deemed as CGC positive and was marked with “+”)"
same,CGC formation,"Compound (I) 100 mg, aminoglycoside (kanamycin, gentamycin) 500 mg","+ (If cell length was more than 50 μm and cell number was more than 5 in each visual field, it was deemed as CGC positive and was marked with “+”)"
same,CGC formation,"Compound (I) 100 mg, macrolide (spiramycin) 300 mg","− (if cell length was not greater than 50 μm and cell number was within the range from 0 to 4 in each visual field, it was deemed as CGC negative and was marked with “−”)"
same,CGC formation,"Compound (I) 100 mg, macrolide (spiramycin) 500 mg","− (if cell length was not greater than 50 μm and cell number was within the range from 0 to 4 in each visual field, it was deemed as CGC negative and was marked with “−”)"
same,CGC formation,"Compound (I) 100 mg, macrolide (spiramycin) 700 mg","− (if cell length was not greater than 50 μm and cell number was within the range from 0 to 4 in each visual field, it was deemed as CGC negative and was marked with “−”)"
same,CGC formation,"Compound (I) 100 mg, macrolide (spiramycin) 900 mg","+ (If cell length was more than 50 μm and cell number was more than 5 in each visual field, it was deemed as CGC positive and was marked with “+”)"
same,CGC formation,"Compound (I) 100 mg, macrolide (spiramycin) 1100 mg","+ (If cell length was more than 50 μm and cell number was more than 5 in each visual field, it was deemed as CGC positive and was marked with “+”)"
same,CGC formation,"Compound (I) 100 mg, macrolide (spiramycin) 1300 mg","+ (If cell length was more than 50 μm and cell number was more than 5 in each visual field, it was deemed as CGC positive and was marked with “+”)"
same,CGC formation,"Compound (I) 100 mg, macrolide (spiramycin) 1500 mg","+ (If cell length was more than 50 μm and cell number was more than 5 in each visual field, it was deemed as CGC positive and was marked with “+”)"
same,CGC formation,"Compound (I) 150 mg, aminoglycoside (kanamycin, gentamycin) 50 mg","− (if cell length was not greater than 50 μm and cell number was within the range from 0 to 4 in each visual field, it was deemed as CGC negative and was marked with “−”)"
same,CGC formation,"Compound (I) 150 mg, aminoglycoside (kanamycin, gentamycin) 100 mg","− (if cell length was not greater than 50 μm and cell number was within the range from 0 to 4 in each visual field, it was deemed as CGC negative and was marked with “−”)"
same,CGC formation,"Compound (I) 150 mg, aminoglycoside (kanamycin, gentamycin) 150 mg","− (if cell length was not greater than 50 μm and cell number was within the range from 0 to 4 in each visual field, it was deemed as CGC negative and was marked with “−”)"
same,CGC formation,"Compound (I) 150 mg, aminoglycoside (kanamycin, gentamycin) 200 mg","− (if cell length was not greater than 50 μm and cell number was within the range from 0 to 4 in each visual field, it was deemed as CGC negative and was marked with “−”)"
same,CGC formation,"Compound (I) 150 mg, aminoglycoside (kanamycin, gentamycin) 300 mg","+ (If cell length was more than 50 μm and cell number was more than 5 in each visual field, it was deemed as CGC positive and was marked with “+”)"
same,CGC formation,"Compound (I) 150 mg, aminoglycoside (kanamycin, gentamycin) 400 mg","+ (If cell length was more than 50 μm and cell number was more than 5 in each visual field, it was deemed as CGC positive and was marked with “+”)"
same,CGC formation,"Compound (I) 150 mg, aminoglycoside (kanamycin, gentamycin) 500 mg","+ (If cell length was more than 50 μm and cell number was more than 5 in each visual field, it was deemed as CGC positive and was marked with “+”)"
same,CGC formation,"Compound (I) 150 mg, macrolide (spiramycin) 300 mg","− (if cell length was not greater than 50 μm and cell number was within the range from 0 to 4 in each visual field, it was deemed as CGC negative and was marked with “−”)"
